Laboratory results published in US11858941B2, “Heterocyclic and heteroaryl compounds for treating Huntington's disease” (PTC THERAPEUTICS, INC., priority 2018, dated 2024).

System: Endogenous Huntingtin Protein
Test: Endogenous Huntingtin Protein Assay (Meso Scale Discovery ELISA-based electrochemiluminescence)
Type: cell-based
Details: MSD plates coated with MW1 (expanded polyglutamine) or MAB2166 capture antibody; lysates
Procedure: Compounds of Formula (I) were tested using the Meso Scale Discovery (MSD) Assay provided in International Application No. PCT/US2016/066042, filed on Dec. 11, 2016 and claiming priority to United States Provisional Application U.S. 62/265,652 filed on Dec. 10, 2015, the entire contents of which are incorporated herein by reference.
The Endogenous Huntingtin Protein assay used in Example 1 was developed using the ELISA-based MSD electrochemiluminescence assay platform.
Endogenous Huntingtin Protein Assay
Meso Scale Discovery (MSD) 96-well or 384-well plates were coated overnight at 4° C. with MW1 (expanded polyglutamine) or MAB2166 monoclonal antibody (for capture) at a concentration of 1 μg/mL in PBS (30 μL per well). Plates were then washed three times with 300 μL wash buffer (0.05% Tween-20 in PBS) and blocked (100 μL blocking buffer; 5% BSA in PBS) for 4-5 hours at room temperature with rotational shaking and then washed three times with wash buffer.
Samples (25 μL) were transferred to the antibody-coated MSD plate and incubated overnight at 4° C. After removal of the lysates, the plate was washed three times with wash buffer, and 25 μL of #5656S (Cell signaling; rabbit monoclonal) secondary antibody (diluted to 0.25 μg/mL in 0.05% Tween-20 in blocking buffer) was added to each well and incubated with shaking for 1 Hour at room temperature. Following incubation with the secondary antibody, the wells were rinsed with wash buffer after which 25 μL of goat anti-rabbit SULFO TAG secondary detection antibody (required aspect of the MSD system) (diluted to 0.25 μg/mL in 0.05% Tween-20 in blocking buffer) was added to each well and incubated with shaking for 1 hour at room temperature. After rinsing three times with wash buffer, 150 μL of read buffer T with surfactant (MSD) were added to each empty well, and the plate was imaged on a SI 6000 imager (MSD) according to manufacturers' instructions provided for 96- or 384-well plates.

Row | IC50 [nM] | SMILES
1 | 100 to 500 | CC1(C)CC(n2cnc3nc(-c4ccc(-c5cn[nH]c5)cc4O)cnc32)CC(C)(C)N1 [Cpd 1, 5-(1H-pyrazol-4-yl)-2-[1-(2,2,6,6-tetramethylpiperidin-4-yl)-1H-imidazo[4,5-b]pyrazin-5-yl]phenol]
2 | 100 to 500 | CC1(C)CC(n2cnc3nc(-c4cc(F)c(-c5cn[nH]c5)cc4F)cnc32)CC(C)(C)N1 [Cpd 2, 5-[2,5-difluoro-4-(1H-pyrazol-4-yl)phenyl]-1-(2,2,6,6-tetramethylpiperidin-4-yl)-1H-imidazo[4,5-b]pyrazine]
3 | ≤ 100 | CC1(C)CC(n2cnc3cc(-c4ccc(-c5cn[nH]c5)cc4O)nnc32)CC(C)(C)N1 [Cpd 3, 5-(1H-pyrazol-4-yl)-2-[7-(2,2,6,6-tetramethylpiperidin-4-yl)-7H-imidazo[4,5-c]pyridazin-3-yl]phenol]
4 | ≤ 100 | CC1(C)CC(n2cnc3cc(-c4cc(F)c(-c5cn[nH]c5)cc4F)nnc32)CC(C)(C)N1 [Cpd 4, 3-[2,5-difluoro-4-(1H-pyrazol-4-yl)phenyl]-7-(2,2,6,6-tetramethylpiperidin-4-yl)-7H-imidazo[4,5-c]pyridazine]
5 | ≤ 100 | Cc1nc2cc(-c3ccc(-c4cn[nH]c4)cc3O)nnc2n1C1CC(C)(C)NC(C)(C)C1 [Cpd 5, 2-[6-methyl-7-(2,2,6,6-tetramethylpiperidin-4-yl)-7H-imidazo[4,5-c]pyridazin-3-yl]-5-(1H-pyrazol-4-yl)phenol]
6 | 500 to 1000 | Cc1nc2cc(-c3cc(F)c(-c4cn[nH]c4)cc3F)nnc2n1C1CC(C)(C)NC(C)(C)C1 [Cpd 6, 3-[2,5-difluoro-4-(1H-pyrazol-4-yl)phenyl]-6-methyl-7-(2,2,6,6-tetramethylpiperidin-4-yl)-7H-imidazo[4,5-c]pyridazine]
7 | ≤ 100 | CC1(C)CC(n2nnc3cc(-c4ccc(-c5cn[nH]c5)cc4O)nnc32)CC(C)(C)N1 [Cpd 7, 5-(1H-pyrazol-4-yl)-2-[3-(2,2,6,6-tetramethylpiperidin-4-yl)-3H-[1,2,3]triazolo[4,5-c]pyridazin-6-yl]phenol]
8 | 1000 to 3000 | CC1(C)C=C(n2ccc3nc(-c4ccc(-c5cn[nH]c5)cc4O)cnc32)CC(C)(C)N1 [Cpd 8, 5-(1H-pyrazol-4-yl)-2-[5-(2,2,6,6-tetramethyl-1,2,3,6-tetrahydropyridin-4-yl)-5H-pyrrolo[2,3-b]pyrazin-2-yl]phenol]
9 | 1000 to 3000 | CC1(C)CC(n2c(O)nc3cc(-c4ccc(-c5cn[nH]c5)cc4O)nnc32)CC(C)(C)N1 [Cpd 9, 3-[2-hydroxy-4-(1H-pyrazol-4-yl)phenyl]-7-(2,2,6,6-tetramethylpiperidin-4-yl)-7H-imidazo[4,5-c]pyridazin-6-ol]
10 | ≤ 100 | CC1(C)CC(n2ccc3nc(-c4ccc(-c5cn[nH]c5)cc4O)cnc32)CC(C)(C)N1 [Cpd 10, 5-(1H-pyrazol-4-yl)-2-[5-(2,2,6,6-tetramethylpiperidin-4-yl)-5H-pyrrolo[2,3-b]pyrazin-2-yl]phenol]
11 | 100 to 500 | Oc1cc(-c2cn[nH]c2)ccc1-c1cc2[nH]cc(C3CCNCC3)c2nn1 [Cpd 12, 2-[7-(piperidin-4-yl)-5H-pyrrolo[3,2-c]pyridazin-3-yl]-5-(1H-pyrazol-4-yl)phenol]
12 | 100 to 500 | CC1(C)CC(n2nnc3cc(-c4ccc(-c5cn[nH]c5)c(F)c4F)nnc32)CC(C)(C)N1 [Cpd 13, 6-[2,3-difluoro-4-(1H-pyrazol-4-yl)phenyl]-3-(2,2,6,6-tetramethylpiperidin-4-yl)-3H-[1,2,3]triazolo[4,5-c]pyridazine]
13 | 100 to 500 | CC1(C)CC(n2nnc3cc(-c4cc(F)c(-c5cn[nH]c5)cc4F)nnc32)CC(C)(C)N1 [Cpd 14, 6-[2,5-difluoro-4-(1H-pyrazol-4-yl)phenyl]-3-(2,2,6,6-tetramethylpiperidin-4-yl)-3H-[1,2,3]triazolo[4,5-c]pyridazine]
14 | 100 to 500 | CC1(C)CC(n2ccc3nc(-c4cc(F)c(-c5cn[nH]c5)cc4F)cnc32)CC(C)(C)N1 [Cpd 16, 2-[2,5-difluoro-4-(1H-pyrazol-4-yl)phenyl]-5-(2,2,6,6-tetramethylpiperidin-4-yl)-5H-pyrrolo[2,3-b]pyrazine]
15 | ≤ 100 | CC1(C)C=C(c2csc3cc(-c4ccc(-c5cn[nH]c5)cc4O)nnc23)CC(C)(C)N1 [Cpd 17, 5-(1H-pyrazol-4-yl)-2-[7-(2,2,6,6-tetramethyl-1,2,3,6-tetrahydropyridin-4-yl)thieno[3,2-c]pyridazin-3-yl]phenol]
16 | 1000 to 3000 | Oc1cc(-c2cn[nH]c2)ccc1-c1cnc2c(cnn2C2CCNCC2)n1 [Cpd 19, 2-[1-(piperidin-4-yl)-1H-pyrazolo[3,4-b]pyrazin-5-yl]-5-(1H-pyrazol-4-yl)phenol]
17 | ≤ 100 | CC1(C)C=C(c2c[nH]c3cc(-c4ccc(-c5cn[nH]c5)cc4O)nnc23)CC(C)(C)N1 [Cpd 20, 5-(1H-pyrazol-4-yl)-2-[7-(2,2,6,6-tetramethyl-1,2,3,6-tetrahydropyridin-4-yl)-5H-pyrrolo[3,2-c]pyridazin-3-yl]phenol]
18 | 1000 to 3000 | Oc1cc(-c2cn[nH]c2)ccc1-c1cc2cnn(C3CCNCC3)c2nn1 [Cpd 21, 2-[1-(piperidin-4-yl)-1H-pyrazolo[3,4-c]pyridazin-5-yl]-5-(1H-pyrazol-4-yl)phenol]
19 | ≤ 100 | CC1(C)CC(n2ncc3cc(-c4ccc(-c5cn[nH]c5)cc4O)nnc32)CC(C)(C)N1 [Cpd 22, 5-(1H-pyrazol-4-yl)-2-[1-(2,2,6,6-tetramethylpiperidin-4-yl)-1H-pyrazolo[3,4-c]pyridazin-5-yl]phenol]
20 | ≤ 100 | CC1(C)CC(N2CCc3cc(-c4ccc(-c5cn[nH]c5)cc4O)nnc32)CC(C)(C)N1 [Cpd 23, 5-(1H-pyrazol-4-yl)-2-[7-(2,2,6,6-tetramethylpiperidin-4-yl)-6,7-dihydro-5H-pyrrolo[2,3-c]pyridazin-3-yl]phenol]
21 | ≤ 100 | CC1(C)CC(c2csc3cc(-c4ccc(-c5cn[nH]c5)cc4O)nnc23)CC(C)(C)N1 [Cpd 24, 5-(1H-pyrazol-4-yl)-2-[7-(2,2,6,6-tetramethylpiperidin-4-yl)thieno[3,2-c]pyridazin-3-yl]phenol]
22 | ≤ 100 | CC1(C)CC(n2ccc3cc(-c4ccc(-c5cn[nH]c5)cc4O)nnc32)CC(C)(C)N1 [Cpd 26, 5-(1H-pyrazol-4-yl)-2-[7-(2,2,6,6-tetramethylpiperidin-4-yl)-7H-pyrrolo[2,3-c]pyridazin-3-yl]phenol]
23 | ≤ 100 | CC1(C)CC(c2c[nH]c3cc(-c4ccc(-c5cn[nH]c5)cc4O)nnc23)CC(C)(C)N1 [Cpd 31, 5-(1H-pyrazol-4-yl)-2-[7-(2,2,6,6-tetramethylpiperidin-4-yl)-5H-pyrrolo[3,2-c]pyridazin-3-yl]phenol]
24 | 100 to 500 | CC1(C)CC(N2CCc3cc(-c4ccc(-c5cn[nH]c5)c(F)c4F)nnc32)CC(C)(C)N1 [Cpd 32, 3-[2,3-difluoro-4-(1H-pyrazol-4-yl)phenyl]-7-(2,2,6,6-tetramethylpiperidin-4-yl)-6,7-dihydro-5H-pyrrolo[2,3-c]pyridazine]

Row | SMILES | IC50 [nM]
25 | Oc1cc(-c2cn[nH]c2)ccc1-c1cc2[nH]cc(C3=CCNCC3)c2nn1 [Cpd 11, 5-(1H-pyrazol-4-yl)-2-[7-(1,2,3,6-tetrahydropyridin-4-yl)-5H-pyrrolo[3,2-c]pyridazin-3-yl]phenol] | 1000 to 3000
26 | Oc1cc(-c2cn[nH]c2)ccc1-c1cc2scc(C3=CCNCC3)c2nn1 [Cpd 15, 5-(1H-pyrazol-4-yl)-2-[7-(1,2,3,6-tetrahydropyridin-4-yl)thieno[3,2-c]pyridazin-3-yl]phenol] | 1000 to 3000
27 | Oc1cc(-c2cn[nH]c2)ccc1-c1cc2scc(C3=CC4CCC(C3)N4)c2nn1 (centres unmarked) [Cpd 18, 2-[7-(8-azabicyclo[3.2.1]oct-2-en-3-yl)thieno[3,2-c]pyridazin-3-yl]-5-(1H-pyrazol-4-yl)phenol] | ≤ 100
28 | Oc1cc(-c2cn[nH]c2)ccc1-c1cc2scc(C3=CC4COCC(C3)N4)c2nn1 (centres unmarked) [Cpd 25, 2-[7-(3-oxa-9-azabicyclo[3.3.1]non-6-en-7-yl)thieno[3,2-c]pyridazin-3-yl]-5-(1H-pyrazol-4-yl)phenol] | ≤ 100
29 | Oc1cc(-c2cn[nH]c2)ccc1-c1cc2[nH]cc(C3=CC4CCC(C3)N4)c2nn1 (centres unmarked) [Cpd 27, 2-[7-(8-azabicyclo[3.2.1]oct-2-en-3-yl)-5H-pyrrolo[3,2-c]pyridazin-3-yl]-5-(1H-pyrazol-4-yl)phenol] | ≤ 100
30 | Oc1cc(-c2cn[nH]c2)ccc1-c1cc2[nH]cc(C3=CC4COCC(C3)N4)c2nn1 (centres unmarked) [Cpd 28, 2-[7-(3-oxa-9-azabicyclo[3.3.1]non-6-en-7-yl)-5H-pyrrolo[3,2-c]pyridazin-3-yl]-5-(1H-pyrazol-4-yl)phenol] | 1000 to 3000
31 | Oc1cc(-c2cn[nH]c2)ccc1-c1cc2[nH]cc(C3CC4CCC(C3)N4)c2nn1 (centres unmarked) [Cpd 29, 2-[7-(8-azabicyclo[3.2.1]oct-3-yl)-5H-pyrrolo[3,2-c]pyridazin-3-yl]-5-(1H-pyrazol-4-yl)phenol] | ≤ 100
32 | Oc1cc(-c2cn[nH]c2)ccc1-c1cc2[nH]cc(C3CC4COCC(C3)N4)c2nn1 (centres unmarked) [Cpd 30, 2-[7-(3-oxa-9-azabicyclo[3.3.1]non-7-yl)-5H-pyrrolo[3,2-c]pyridazin-3-yl]-5-(1H-pyrazol-4-yl)phenol] | 500 to 1000
